Results published in ChEMBL document CHEMBL4382216, “Asymmetric synthesis and biological evaluation of imidazole- and oxazole-containing synthetic lipoxin A4 mimetics (sLXms)” (Eur J Med Chem, 2019).
Active and inactive are the calls of the source. The calls are words filed in the database; no cut-off is given here.

How the values were obtained:
[1] = molecular target: T1, N-formyl peptide receptor 2 (Homo sapiens) (UniProt P25090); assay: Agonist activity at ALX/FPR2 in human THP1 cells harboring NF-kB-Luc assessed as inhibition of LPS-induced NFkB signalling activation by measuring NF-kB activation level at 10^-6 M pretreated for 30 mins followed by LPS stimulation for 24 hrs by luciferase reporter gene assay; type: cell-based; set-up: scale not given: the % may be the effect or the level left
T1 sequence (whole entry): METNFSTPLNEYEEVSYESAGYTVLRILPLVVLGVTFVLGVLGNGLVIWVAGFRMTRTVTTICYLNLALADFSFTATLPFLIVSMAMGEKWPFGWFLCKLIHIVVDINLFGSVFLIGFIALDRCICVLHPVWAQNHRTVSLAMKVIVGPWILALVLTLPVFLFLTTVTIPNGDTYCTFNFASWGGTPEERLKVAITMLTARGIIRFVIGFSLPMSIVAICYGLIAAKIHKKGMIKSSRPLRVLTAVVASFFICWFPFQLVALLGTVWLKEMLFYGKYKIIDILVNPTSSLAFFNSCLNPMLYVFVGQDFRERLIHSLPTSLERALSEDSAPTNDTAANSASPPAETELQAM

[2] = species: Homo sapiens; assay: Activation of Luc-fused NFkB (unknown origin) expressed in non-stimulated human THP1 cells assessed as relative luminescence unit at 10^-6 M after 24 hrs by luciferase reporter gene assay (reference value: 100%); type: cell-based
[3] = molecular target: T1, N-formyl peptide receptor 2 (Homo sapiens); assay: Agonist activity at ALX/FPR2 in human THP1 cells harboring NF-kB-Luc assessed as inhibition of LPS-induced NFkB signalling activation by measuring IL-1beta secretion at 10^-6 M pretreated for 30 mins followed by LPS stimulation for 24 hrs by electrochemiluminescence assay (reference value: 100%); type: cell-based; set-up: scale not given: the % may be the effect or the level left
[4] = molecular target: T1, N-formyl peptide receptor 2 (Homo sapiens); assay: Agonist activity at ALX/FPR2 in human THP1 cells harboring NF-kB-Luc assessed as inhibition of LPS-induced NFkB signalling activation by measuring IL-6 secretion at 10^-6 M pretreated for 30 mins followed by LPS stimulation for 24 hrs by electrochemiluminescence assay (reference value: 100%); type: cell-based; set-up: scale not given: the % may be the effect or the level left
[5] = molecular target: T1, N-formyl peptide receptor 2 (Homo sapiens); assay: Agonist activity at ALX/FPR2 in human THP1 cells harboring NF-kB-Luc assessed as inhibition of LPS-induced NFkB signalling activation by measuring IL-12p70 secretion at 10^-6 M pretreated for 30 mins followed by LPS stimulation for 24 hrs by electrochemiluminescence assay (reference value: 100%); type: cell-based; set-up: scale not given: the % may be the effect or the level left
[6] = molecular target: T1, N-formyl peptide receptor 2 (Homo sapiens); assay: Agonist activity at ALX/FPR2 in human THP1 cells harboring NF-kB-Luc assessed as inhibition of LPS-induced NFkB signalling activation by measuring IFNgamma secretion at 10^-6 M pretreated for 30 mins followed by LPS stimulation for 24 hrs by electrochemiluminescence assay (reference value: 100%); type: cell-based; set-up: scale not given: the % may be the effect or the level left
[7] = molecular target: T1, N-formyl peptide receptor 2 (Homo sapiens); assay: Agonist activity at ALX/FPR2 in human THP1 cells harboring NF-kB-Luc assessed as inhibition of LPS-induced NFkB signalling activation by measuring TNFalpha secretion at 10^-6 M pretreated for 30 mins followed by LPS stimulation for 24 hrs by electrochemiluminescence assay (reference value: 100%); type: cell-based; set-up: scale not given: the % may be the effect or the level left
[8] = system: THP-1; assay: Cytotoxicity against human THP1 cells harboring NFkB-Luc assessed as LDH release at 10'6 M after 24 hrs by spectrophotometric method relative to control; type: cell-based; details: thp-1, 24 h
[9] = system: Mus musculus; assay: (§1) Anti-inflammatory activity in zymosan-induced C57BL/6J mouse peritonitis model assessed as total cell count in peritoneal cavity at 25 ug, ip pretreated for 1 hr followed by zymosan treatment and redosing of test compound at 1 hr post zymosan addition and measured 4 hrs post zymosan addition by flow cytometry (reference value: 100%); type: functional
[10] = system: Mus musculus; assay: as §1, with “PMN leukocytes level” for “total cell count”; type: functional
[11] = species: Homo sapiens; assay: Activation of Luc-fused NFkB (unknown origin) expressed in non-stimulated human THP1 cells assessed as relative luminescence unit at 10^-12 M after 24 hrs by luciferase reporter gene assay (reference value: 100%); type: cell-based
[12] = species: Homo sapiens; assay: Activation of Luc-fused NFkB (unknown origin) expressed in non-stimulated human THP1 cells assessed as relative luminescence unit at 10^-11 M after 24 hrs by luciferase reporter gene assay (reference value: 100%); type: cell-based
[13] = species: Homo sapiens; assay: Activation of Luc-fused NFkB (unknown origin) expressed in non-stimulated human THP1 cells assessed as relative luminescence unit at 10^-10 M after 24 hrs by luciferase reporter gene assay (reference value: 100%); type: cell-based
[14] = species: Homo sapiens; assay: Activation of Luc-fused NFkB (unknown origin) expressed in non-stimulated human THP1 cells assessed as relative luminescence unit at 10^-9 M after 24 hrs by luciferase reporter gene assay (reference value: 100%); type: cell-based
[15] = species: Homo sapiens; assay: Activation of Luc-fused NFkB (unknown origin) expressed in non-stimulated human THP1 cells assessed as relative luminescence unit at 10^-8 M after 24 hrs by luciferase reporter gene assay (reference value: 100%); type: cell-based
[16] = species: Homo sapiens; assay: Activation of Luc-fused NFkB (unknown origin) expressed in non-stimulated human THP1 cells assessed as relative luminescence unit at 10^-7 M after 24 hrs by luciferase reporter gene assay (reference value: 100%); type: cell-based
[17] = molecular target: T2, N-formyl peptide receptor 2 (Homo sapiens, UniProt P25090); assay: Agonist activity at ALX/FPR2 in human THP1 cells harboring NF-kB-Luc assessed as inhibition of LPS-induced NFkB signalling activation pretreated for 30 mins followed by LPS stimulation for 24 hrs by luciferase reporter gene assay; type: cell-based
T2 sequence (P25090 whole entry): T1 sequence (whole entry)

[18] = molecular target: T2, N-formyl peptide receptor 2; assay: Agonist activity at ALX/FPR2 in human THP1 cells harboring NF-kB-Luc assessed as inhibition of LPS-induced NFkB signalling activation by measuring reduction in IFNgamma secretion pretreated for 30 mins followed by LPS stimulation for 24 hrs by electrochemiluminescence assay; type: cell-based; details: read-out: IC50
[19] = molecular target: T2, N-formyl peptide receptor 2; assay: Agonist activity at ALX/FPR2 in human THP1 cells harboring NF-kB-Luc assessed as inhibition of LPS-induced NFkB signalling activation by measuring reduction in IL-12p70 secretion pretreated for 30 mins followed by LPS stimulation for 24 hrs by electrochemiluminescence assay; type: cell-based; details: read-out: IC50
[20] = molecular target: T2, N-formyl peptide receptor 2; assay: Agonist activity at ALX/FPR2 in human THP1 cells harboring NF-kB-Luc assessed as inhibition of LPS-induced NFkB signalling activation by measuring reduction in TNFalpha secretion pretreated for 30 mins followed by LPS stimulation for 24 hrs by electrochemiluminescence assay; type: cell-based; details: read-out: IC50
[21] = molecular target: T2, N-formyl peptide receptor 2; assay: Agonist activity at ALX/FPR2 in human THP1 cells harboring NF-kB-Luc assessed as inhibition of LPS-induced NFkB signalling activation by measuring reduction in IL-1beta secretion pretreated for 30 mins followed by LPS stimulation for 24 hrs by electrochemiluminescence assay; type: cell-based
[22] = molecular target: T2, N-formyl peptide receptor 2; assay: Agonist activity at ALX/FPR2 in human THP1 cells harboring NF-kB-Luc assessed as inhibition of LPS-induced NFkB signalling activation by measuring reduction in IL-6 secretion pretreated for 30 mins followed by LPS stimulation for 24 hrs by electrochemiluminescence assay; type: cell-based; details: read-out: IC50
[23] = system: THP-1; assay: Cytotoxicity against human THP1 cells harboring NFkB-Luc assessed as LDH release at 10'12 M after 24 hrs by spectrophotometric method relative to control; type: cell-based; details: thp-1, 24 h
[24] = system: THP-1; assay: Cytotoxicity against human THP1 cells harboring NFkB-Luc assessed as LDH release at 10'11 M after 24 hrs by spectrophotometric method relative to control; type: cell-based; details: thp-1, 24 h
[25] = system: THP-1; assay: Cytotoxicity against human THP1 cells harboring NFkB-Luc assessed as LDH release at 10'10 M after 24 hrs by spectrophotometric method relative to control; type: cell-based; details: thp-1, 24 h
[26] = system: THP-1; assay: Cytotoxicity against human THP1 cells harboring NFkB-Luc assessed as LDH release at 10'9 M after 24 hrs by spectrophotometric method relative to control; type: cell-based; details: thp-1, 24 h
[27] = system: THP-1; assay: Cytotoxicity against human THP1 cells harboring NFkB-Luc assessed as LDH release at 10'8 M after 24 hrs by spectrophotometric method relative to control; type: cell-based; details: thp-1, 24 h
[28] = system: THP-1; assay: Cytotoxicity against human THP1 cells harboring NFkB-Luc assessed as LDH release at 10'7 M after 24 hrs by spectrophotometric method relative to control; type: cell-based; details: thp-1, 24 h
[29] = system: HEK293; assay: Induction of intracellular calcium accumulation in HEK293 cells at 0.01 nM to 100 nM by Fluo-4 dye based fluorescence spectrophotometric assay; type: functional, cell-based; details: Homo sapiens
[30] = system: Mus musculus; assay: as §1, with “at 50 ng,” for “at 25 ug,”, “for 30 mins” for “for 1 hr”; type: functional
[31] = system: Mus musculus; assay: as §1, with “at 150 ng,” for “at 25 ug,”, “for 30 mins” for “for 1 hr”; type: functional
[32] = system: Mus musculus; assay: as §1, with “as PMN leukocytes level” for “as total cell count”, “at 50 ng,” for “at 25 ug,”, “for 30 mins” for “for 1 hr”; type: functional
[33] = system: Mus musculus; assay: as §1, with “as PMN leukocytes level” for “as total cell count”, “at 150 ng,” for “at 25 ug,”, “for 30 mins” for “for 1 hr”; type: functional

`C[C@@H]1C[C@H]2[C@@H]3CCC4=CC(=O)C=C[C@]4(C)[C@@]3(F)[C@@H](O)C[C@]2(C)[C@@]1(O)C(=O)CO` [DEXAMETHASONE] was tested, and the Activity [1] was 53.2%, the Activity [2] was 1.6% and the Activity [3] was 13.6%. It also gave an Activity [4] of 1.5%, an Activity [5] of 62.6% and an Activity [6] of 45.1%. The Activity [7] was 58.1%, the “fold change (FC)” value [8] was 1.3 and the Emax [9] was 46.7%. For the same molecule, the Emax [10] was 51.5%.

`CCCCC[C@@H](O)c1c(/C=C/[C@@H](O)[C@@H](O)CCCC(=O)OC)nc(C)n1C` was tested, and the Activity [11] was 2%, the Activity [12] was 2.1% and the Activity [13] was 2.3%. For the same molecule, the Activity [14] was 2.1%, the Activity [15] was 2.1% and the Activity [16] was 2.5%. For the same molecule, the Activity [2] was 2%, the IC50 [17] was 1 nM and the IC50 [18] was 4.4 nM. For the same molecule, the IC50 [19] was 5.1 nM, the IC50 [20] was 5.6 nM and the IC50 [21] was “Not Active”. The IC50 [22] was 76.6 nM, the “fold change (FC)” value [23] was 1 and the “fold change (FC)” value [24] was 0.9. For the same molecule, the “fold change (FC)” value [25] was 0.9, the “fold change (FC)” value [26] was 0.8 and the “fold change (FC)” value [27] was 0.9. For the same molecule, the “fold change (FC)” value [28] was 0.9, the “fold change (FC)” value [8] was 1.1 and the Activity [29] was “inactive”. It also gave an Emax [30] of 57.9%, an Emax [31] of 30.4% and an Emax [32] of 51.6%. The Emax [33] was 32.5%.
